This note sets out measurements from PubChem BioAssay AID488867 (Broad Institute, 2010).

Assay [1] relates to INS-1E cytokine-induced apoptosis, JC-1 mitochondrial potential, 48 h. Nature of the assay: INS-1E mitochondrial potential loss inhibitors – cell-based, JC-1 fluorescence, dry powder, set 2, dose response (AID 488867).
Assay in assay [2]: as above
The settings on record: INS-1E cytokine-induced apoptosis, JC-1 mitochondrial potential, 48 h.

SMILES strings stand for the structures. The source made the active and inactive calls.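 The calls were made as follows: active = a rising curve with AC50 no higher than ten times the top valid dose of that compound; inconclusive = flat curve between 30 and 70 percent, or failed fit; inactive = the rest.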

In the case of `COc1ccc(S(=O)(=O)N(C)C[C@@H]2Oc3c(NC(=O)Nc4cccc5ccccc45)cccc3C(=O)N([C@H](C)CO)C[C@H]2C)cc1`, the AC50 in assay [1] was > 23.5 µM (inactive).

With `Cc1ccc(S(=O)(=O)N(C)C[C@@H]2Oc3c(NC(=O)Nc4ccccc4)cccc3C(=O)N([C@@H](C)CO)C[C@H]2C)cc1`, the AC50 in assay [1] is > 26 µM (inactive).

Turning to `COc1ccc(S(=O)(=O)N(C)C[C@@H]2Oc3c(NC(=O)Nc4ccccc4)cccc3C(=O)N([C@H](C)CO)C[C@H]2C)cc1`, in assay [1], the AC50 was > 26 µM (inactive).

With `C[C@@H]1CN([C@@H](C)CO)C(=O)c2cccc(NC(=O)Nc3cccc4ccccc34)c2O[C@H]1CN(C)S(=O)(=O)c1ccccc1`, the protection from cytokine-induced depolarization in assay [2] (at 26 µM (top of the series)) was 8.02% (inactive).

Consider `C[C@@H]1CN([C@@H](C)CO)C(=O)c2cccc(NC(=O)Nc3cccc4ccccc34)c2O[C@H]1CN(C)S(=O)(=O)c1cn(C)cn1`, for which the protection from cytokine-induced depolarization in assay [2] (at 26 µM (top of the series)) was 6.5% (inactive).

In the case of `C[C@@H]1CN([C@@H](C)CO)C(=O)c2cccc(NC(=O)Nc3cccc4ccccc34)c2O[C@H]1CN(C)C(=O)Nc1ccccc1`, the protection from cytokine-induced depolarization in assay [2] (at 23.5 µM (top of the series)) was 2.8% (inactive).

Regarding `COc1ccc(NC(=O)Nc2cccc3c2O[C@@H](CN(C)S(=O)(=O)c2ccc(OC)cc2)[C@H](C)CN([C@@H](C)CO)C3=O)cc1`, the protection from cytokine-induced depolarization in assay [2] (at 26 µM (top of the series)) was 0.556% (inactive).

Regarding `COc1ccc(S(=O)(=O)N(C)C[C@H]2Oc3c(NC(=O)Nc4cccc5ccccc45)cccc3C(=O)N([C@@H](C)CO)C[C@@H]2C)cc1`, the AC50 in assay [1] is > 26 µM (inactive).

Turning to `COc1ccc(S(=O)(=O)N(C)C[C@@H]2Oc3c(NC(=O)C4CCCCC4)cccc3C(=O)N([C@@H](C)CO)C[C@H]2C)cc1`, in assay [2] (at 26 µM (top of the series)), the protection from cytokine-induced depolarization was 2.77% (inactive).

For the molecule `C[C@@H]1CN([C@H](C)CO)C(=O)c2cccc(NC(=O)Nc3ccccc3)c2O[C@H]1CN(C)S(=O)(=O)c1ccc(F)cc1`, the protection from cytokine-induced depolarization in assay [2] (at 26 µM (top of the series)) is 4.78% (inactive).

For `COc1ccc(S(=O)(=O)N(C)C[C@@H]2Oc3ccc(NC(=O)Nc4cccc5ccccc45)cc3C(=O)N([C@@H](C)CO)C[C@H]2C)cc1`, in assay [2] (at 26 µM (top of the series)), the protection from cytokine-induced depolarization is -12% (inactive).

Consider `N#Cc1ccc2cc(Br)c(C(F)(F)P(=O)(O)O)cc2c1`, for which the protection from cytokine-induced depolarization in assay [2] (at 26 µM (top of the series)) was -2.22% (inactive).

Regarding `COc1ccc(S(=O)(=O)N(C)C[C@@H]2Oc3c(NS(=O)(=O)c4ccccc4)cccc3C(=O)N([C@@H](C)CO)C[C@H]2C)cc1`, in assay [2] (at 26 µM (top of the series)), the protection from cytokine-induced depolarization was -2.15% (inactive).

Turning to `C[C@@H]1CN([C@@H](C)CO)C(=O)c2cccc(NC(=O)Nc3cccc(Cl)c3Cl)c2O[C@H]1CN(C)S(=O)(=O)c1ccc2c(c1)OCCO2`, the protection from cytokine-induced depolarization in assay [2] (at 26 µM (top of the series)) is 8.05% (inactive).

On to `C[C@@H]1CN([C@@H](C)CO)C(=O)c2cccc(NC(=O)Nc3cccc4ccccc34)c2O[C@H]1CN(C)S(=O)(=O)c1ccc(F)cc1`, for which the protection from cytokine-induced depolarization in assay [2] (at 26 µM (top of the series)) was 4.49% (inactive).

As to `CNC[C@@H]1Oc2c(NC(=O)Nc3cccc4ccccc34)cccc2C(=O)N([C@@H](C)CO)C[C@H]1C`, the protection from cytokine-induced depolarization in assay [2] (at 26 µM (top of the series)) was 9.02% (inactive).

`C[C@@H]1CN([C@@H](C)CO)C(=O)c2cccc(NS(=O)(=O)c3ccccc3)c2O[C@H]1CN(C)Cc1ccc(C(F)(F)F)cc1`: the protection from cytokine-induced depolarization in assay [2] (at 26 µM (top of the series)) was -2.49% (inactive).

In the case of `COc1ccc(S(=O)(=O)N(C)C[C@@H]2Oc3c(NC(=O)C4CCOCC4)cccc3C(=O)N([C@@H](C)CO)C[C@H]2C)cc1`, the protection from cytokine-induced depolarization in assay [2] (at 23.5 µM (top of the series)) was 3.35% (inactive).

Consider `C[C@@H]1CN([C@@H](C)CO)C(=O)c2cccc(NC(=O)Nc3ccc(F)cc3)c2O[C@H]1CN(C)S(=O)(=O)c1ccc(F)cc1`, for which, in assay [2] (at 26 µM (top of the series)), the protection from cytokine-induced depolarization was 11.7% (inactive).

With `COc1ccc(S(=O)(=O)N(C)C[C@@H]2Oc3c(NC(=O)C4CC4)cccc3C(=O)N([C@@H](C)CO)C[C@H]2C)cc1`, in assay [2] (at 23.5 µM (top of the series)), the protection from cytokine-induced depolarization was -7.4% (inactive).

On to `COc1ccc(S(=O)(=O)N(C)C[C@@H]2Oc3c(NS(=O)(=O)c4ccc(F)cc4)cccc3C(=O)N([C@@H](C)CO)C[C@H]2C)cc1`, for which the protection from cytokine-induced depolarization in assay [2] (at 26 µM (top of the series)) was -3.26% (inactive).

For `COc1ccc(S(=O)(=O)N(C)C[C@@H]2Oc3c(NC(=O)Nc4cccc5ccccc45)cccc3C(=O)N([C@@H](C)CO)C[C@H]2C)c(OC)c1`, in assay [2] (at 26 µM (top of the series)), the protection from cytokine-induced depolarization is 11.3% (inactive).

With `COc1ccc(S(=O)(=O)N(C)C[C@@H]2Oc3c(NC(=O)Nc4ccc5c(c4)OCO5)cccc3C(=O)N([C@@H](C)CO)C[C@H]2C)cc1`, the protection from cytokine-induced depolarization in assay [2] (at 26 µM (top of the series)) is 4.22% (inactive).

By AC50 is commonly meant the midpoint of the concentration-response curve, whichever way the signal moves.
